Laboratory results from patent publication US9145435B2, “Urea compounds” (Eli Lilly and Company, priority 2013, dated 2015).

Legend:
C57B1/6 mice = test: Glucose lowering effects in oral glucose tolerance test (OGTT); assay type: in vivo, mouse; settings: for Glucose 20 Minute / Glucose 40 Minute / Glucose 60 Minute / Baseline Adjusted AUC (glucose) / Glucose Cmax / Glucose Tmax / Glucose 0 Minute: OGTT, 10 mg/kg oral, Mean ± SEM; for Glucose 20 Minute: 20 min after dextrose; for Glucose 40 Minute: 40 min after dextrose; for Glucose 60 Minute: 60 min after dextrose; for Glucose 0 Minute: baseline before 3 g/kg dextrose
Experimental: The test compound is formulated by adding a vehicle of 1% hydroxyethylcellulose, 0.25% Tween® 80 w/antifoam 0.05% to preweighed test compound to make a 1 mg/ml solution. The mixture is probe sonicated for approximately 1 minute. A stir bar is added, and the resulting suspension is stirred continuously throughout dosing.
One of two sets of single housed C57B1/6 mice are weighed and body weights used to determine study groups (n=5), within a working range of 26-30 g. After grouping, the mice are orally gavaged with 10 ml/kg test compound preparation or vehicle, thirty seconds apart. […] Both sets of mice are then fasted overnight by removing access to food, late afternoon before test day. The following morning, the remaining mice, are weighed and bled (via tail snip) for glucose. Study groups (n=5) are determined using fasted glucose values, within a working range of 80-100 mg/dl. After grouping, the mice are orally gavaged using the same protocol as the previous day.
At eight and eighteen hours after each respective compound treatment is started, a baseline blood sample is taken for measuring glucose (from the first animal). The animal is then immediately given an oral dose of 50% dextrose (Hospira®) at 3 g/kg. Blood samples are taken for glucose, exactly thirty seconds apart, by tail vein so that blood is collected in each animal at 20, 40 and 60 minutes after the dextrose dose.

mouse SGLT1 = molecular target: T1, mouse SGLT1 (Mus musculus, UniProt Q8C3K6); test: Sodium-dependent 14C-AMG uptake assay in CHO-K1 cells expressing mouse SGLT1; assay type: cell-based; settings: n=6
T1 sequence (Q8C3K6 1-665): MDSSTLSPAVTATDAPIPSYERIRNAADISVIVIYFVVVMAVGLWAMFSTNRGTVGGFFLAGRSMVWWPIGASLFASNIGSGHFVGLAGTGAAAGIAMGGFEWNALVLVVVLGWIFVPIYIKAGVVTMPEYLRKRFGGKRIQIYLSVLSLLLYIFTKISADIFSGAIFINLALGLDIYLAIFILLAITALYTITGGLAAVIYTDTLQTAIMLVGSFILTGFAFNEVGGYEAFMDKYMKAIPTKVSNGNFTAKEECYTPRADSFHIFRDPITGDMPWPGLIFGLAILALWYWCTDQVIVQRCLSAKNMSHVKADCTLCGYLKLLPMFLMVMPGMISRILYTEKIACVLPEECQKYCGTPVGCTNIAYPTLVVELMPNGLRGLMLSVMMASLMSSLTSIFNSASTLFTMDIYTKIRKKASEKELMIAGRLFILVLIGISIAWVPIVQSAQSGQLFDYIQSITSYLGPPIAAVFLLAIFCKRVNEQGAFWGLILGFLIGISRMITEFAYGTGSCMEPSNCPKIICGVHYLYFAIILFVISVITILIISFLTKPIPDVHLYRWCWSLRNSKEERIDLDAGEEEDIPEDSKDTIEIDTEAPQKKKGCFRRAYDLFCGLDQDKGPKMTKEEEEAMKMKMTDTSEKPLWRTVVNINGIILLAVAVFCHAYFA
Text: (§1) The cDNA encoding human SGLT1 (slc5a1, NM_000343) and mouse SGLT1 (slc5a1, NM_019810.4) are purchased from Openbiosystems. The cDNA is cloned into pcDNA3.1+ for mammalian expression and is stably transfected into Chinese hamster ovary (CHO)-K1 cells using standard mammalian transfection procedures. An SGLT-expressing sub-clone of each over-expressing cell line is selected based on resistance to neomycin (Geneticin, Invitrogen) and activity in the ^14C-a-methyl-D-glucopyranoside (^14C-AMG) uptake assay (see below). Stable SGLT-expressing cells are maintained using standard cell culture techniques.
(§2) The SGLT activity is measured as sodium-dependent ^14C-AMG uptake in the above cell lines described as follows. One hundred […] of culture medium containing 30,000 cells are seeded to each well of a 96-well BioCoat poly-D-lysine plate (Becton Dickson) and cultured at 37° C. overnight. The culture medium is aspirated and cells are washed twice with […] of Reaction Buffer (140 mM NaCl, 2 mM KCl, 1 mM CaCl2, MgCl2, and 14 mM N-2-hydroethylpiperrazine-N′-2-ethanesulfonic acid (Hepes), pH 7.5). The excess buffer is tapped out onto paper towels. Thirty-five […] of Reaction Buffer are added to each well. […] After mixing, the scintillation signal in the plate is counted in a MicroBeta (PerkinElmer). […]

human SGLT1 = molecular target: T2, human SGLT1 (Homo sapiens, UniProt P13866); test: Sodium-dependent 14C-AMG uptake assay in CHO-K1 cells expressing human SGLT1; assay type: cell-based; settings: n=9
T2 sequence (P13866 1-664): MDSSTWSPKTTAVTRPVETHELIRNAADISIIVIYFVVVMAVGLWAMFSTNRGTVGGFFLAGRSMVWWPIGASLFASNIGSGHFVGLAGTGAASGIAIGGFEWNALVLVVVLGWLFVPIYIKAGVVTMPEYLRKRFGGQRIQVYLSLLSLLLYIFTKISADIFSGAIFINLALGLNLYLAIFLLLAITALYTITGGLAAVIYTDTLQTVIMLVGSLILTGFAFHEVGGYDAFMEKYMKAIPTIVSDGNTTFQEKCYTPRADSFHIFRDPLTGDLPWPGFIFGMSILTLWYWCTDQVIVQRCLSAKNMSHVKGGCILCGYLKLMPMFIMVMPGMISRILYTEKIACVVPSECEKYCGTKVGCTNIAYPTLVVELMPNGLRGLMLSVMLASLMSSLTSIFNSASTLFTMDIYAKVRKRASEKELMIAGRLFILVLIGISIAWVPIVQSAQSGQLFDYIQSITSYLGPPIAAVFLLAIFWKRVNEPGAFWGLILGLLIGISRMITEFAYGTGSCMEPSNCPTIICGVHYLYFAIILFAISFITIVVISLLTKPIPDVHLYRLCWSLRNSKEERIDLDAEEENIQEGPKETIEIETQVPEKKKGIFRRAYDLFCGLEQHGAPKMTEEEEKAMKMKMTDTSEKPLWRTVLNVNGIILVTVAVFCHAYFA
Text: as §1, §2

IC50 (mouse SGLT1): 13.6 ± 7.3 nM
IC50 (human SGLT1): 17.4 ± 14.6 nM
SMILES: Cc1cccc2c1c(Cc1ccc(/C=C/CCN3CCCC4(CCN(C(=O)CNC(=O)NCC(C)C)CC4)C3)cc1)cn2[C@@H]1O[C@H](CO)[C@@H](O)[C@H](O)[C@H]1O [Example 1, 1-isobutyl-3-[2-[4-[(E)-4-[4-[[4-methyl-1-[(2R,3R,4S,5S,6R)-3,4,5-trihydroxy-6-(hydroxymethyl)tetrahydropyran-2-yl]indol-3-yl]methyl]phenyl]but-3-enyl]-4,9-diazaspiro[5.5]undecan-9-yl]-2-oxo-ethyl]urea]
Glucose 20 Minute (C57B1/6 mice; 8 hrs post dose): 119.1 ± 11.4 mg/dL
Glucose 40 Minute (C57B1/6 mice; 8 hrs post dose): 127.7 ± 8.32 mg/dL
Glucose 60 Minute (C57B1/6 mice; 8 hrs post dose): 132.6 ± 8.85 mg/dL
Baseline Adjusted AUC (glucose) (C57B1/6 mice; 8 hrs post dose): 2752 ± 507 mg/dL
Glucose Cmax (C57B1/6 mice; 8 hrs post dose): 134.7 ± 8.31 mg/dL
Glucose Tmax (C57B1/6 mice; 8 hrs post dose): 48 ± 8 min
Glucose 0 Minute (C57B1/6 mice; 8 hrs post dose): 70.2 ± 5.47 mg/dL
Glucose 20 Minute (C57B1/6 mice; 18 hrs post dose): 116.1 ± 2.71 mg/dL
Glucose 40 Minute (C57B1/6 mice; 18 hrs post dose): 130.7 ± 4.47 mg/dL
Glucose 60 Minute (C57B1/6 mice; 18 hrs post dose): 124.1 ± 1.42 mg/dL
Baseline Adjusted AUC (glucose) (C57B1/6 mice; 18 hrs post dose): 1792 ± 254 mg/dL
Glucose Cmax (C57B1/6 mice; 18 hrs post dose): 132.7 ± 3.27 mg/dL
Glucose Tmax (C57B1/6 mice; 18 hrs post dose): 48 ± 4.9 min
Glucose 0 Minute (C57B1/6 mice; 18 hrs post dose): 87.7 ± 3.36 mg/dL
glucose excursion after oral bolus of 50% dextrose (C57B1/6 mice; normal glycemic C57B1/6 mouse, eight or eighteen hours after administration): decrease
